The source of these data is publication PMC6066574, “Resistance to the Plant Defensin NaD1 Features Modifications to the Cell Wall and Osmo-Regulation Pathways of Yeast” (Frontiers in Microbiology, 2018).

Experiment [1] deals with S. cerevisiae BY4741 wild-type. Kind of experiment: Antifungal growth assay, wild-type strain. It counts as cell-based. To be noted: Saccharomyces cerevisiae. On the procedure: (§1) Antifungal assays were performed as described in [Hayes et al. (2013)]. Briefly, cultures were grown overnight (30°C, 250 rpm) in 5 mL YPD and diluted to an OD600 of 0.01 in ½ PDB. Antifungal molecules were prepared at 10x the assay concentration, and 10 μL was mixed with 90 μL of diluted yeast culture before incubation for 24 h at 30°C. The final OD600 was measured using a SpectraMAX M5e plate reader (Molecular Devices).

Experiment [2] deals with S. cerevisiae NaD1-resistant strain A. Kind of experiment: Antifungal growth assay, NaD1-R A. To be noted: Saccharomyces cerevisiae, Table 1, ½ PDB, 24 h at 30°C, OD600, read-out: Caspofungin MIC. The experiment is classed as cell-based. The protocol:
(§2) S. cerevisiae BY4741 was grown overnight at 30°C with agitation in 5 mL of YPD. The overnight culture was then diluted to an OD 600 nm of 0.01 in 50% strength PDB medium (½ PDB) before addition of antifungal molecules. Cultures were initially grown with the antifungal molecules at 0.5x the minimum inhibitory concentration (MIC) or 1x MIC alongside a negative control lacking antifungals. Three independent lines for the test and controls were grown at the same time. The cultures were incubated overnight at 30°C with agitation. […] Sub-culturing was stopped once growth occurred at 32 times the original MIC.
(§3) Cultures that were more tolerant to the antifungal molecule were streaked out for single colonies on non-selective YPD agar. Three colonies were picked from each line, and their resistance was re-tested. The colony with the highest resistance to the antifungal was retained for further experimentation. The MIC of pure strains isolated from each culture was broadly equivalent (Supplementary Figure 1).
(§4) Antifungal assays were performed as described in [Hayes et al. (2013)]. Briefly, cultures were grown overnight (30°C, 250 rpm) in 5 mL YPD and diluted to an OD600 of 0.01 in ½ PDB. […] The final OD600 was measured using a SpectraMAX M5e plate reader (Molecular Devices).

The test system of experiment [3] is S. cerevisiae NaD1-resistant strain B. Briefly: Antifungal growth assay, NaD1-R B. The experiment is classed as cell-based. Conditions: Saccharomyces cerevisiae, Table 1, ½ PDB, 24 h at 30°C, OD600, read-out: Caspofungin MIC. On the procedure:
as §2, §3, §4

The subject of experiment [4] is S. cerevisiae NaD1-resistant strain C. Briefly: Antifungal growth assay, NaD1-R C. The experiment is classed as cell-based. To be noted: Saccharomyces cerevisiae, Table 1, ½ PDB, 24 h at 30°C, OD600, read-out: Caspofungin MIC. On the procedure:
as §2, §3, §4

For experiment [5], the system named is S. cerevisiae Caspofungin-R A. Kind of experiment: Antifungal growth assay, Caspofungin-R A. The experiment is classed as cell-based. Conditions: Saccharomyces cerevisiae, Table 1, ½ PDB, 24 h at 30°C, OD600. The protocol: as §2, §3, §4
Experiment [6] has as its system S. cerevisiae Caspofungin-R B. Kind of experiment: Antifungal growth assay, Caspofungin-R B. It counts as cell-based. Conditions: Saccharomyces cerevisiae, Table 1, ½ PDB, 24 h at 30°C, OD600. On the procedure: as §2, §3, §4
Experiment [7] concerns S. cerevisiae Caspofungin-R C. Briefly: Antifungal growth assay, Caspofungin-R C. To be noted: Saccharomyces cerevisiae, Table 1, ½ PDB, 24 h at 30°C, OD600. The experiment is classed as cell-based. On the procedure:
as §2, §3, §4

The test system of experiment [8] is NaD1-resistant strains of S. cerevisiae. Kind of experiment: Antifungal growth assay, NaD1-resistant strains (stated together). It counts as cell-based, Saccharomyces cerevisiae. Conditions: Figure 2B; result in words. The protocol: as §2, §3, §4
Experiment [9] deals with caspofungin-resistant isolates of S. cerevisiae. Briefly: Antifungal growth assay, caspofungin-resistant isolates (stated together). The experiment is classed as cell-based, Saccharomyces cerevisiae. On the procedure:
as §2, §3, §4

Experiment [10] relates to no-treatment control lines of S. cerevisiae. Briefly: Antifungal growth assay, no-treatment control lines (stated together). It counts as cell-based. Conditions: Saccharomyces cerevisiae, read-out: MIC against no treatment control. On the procedure:
as §2, §1

A further experiment concerns S. cerevisiae BY4741. Briefly: Serial sub-culturing in the presence of antifungal to develop resistance. It counts as cell-based, Saccharomyces cerevisiae. Conditions: caspofungin-resistant lines. The protocol: as §2
Experiment [11] concerns NaD1-resistant strains of S. cerevisiae compared to wild type BY4741. Kind of experiment: Stress spot assay on YPD agar. Conditions: for concentration that inhibited NaD1-resistant strains but not the wild type: YPD agar spot assay, Figure 6; for concentration at which sensitivity of the NaD1-resistant strains was observed: YPD agar, fivefold dilution spots, overnight 30°C, Supplementary Figures 3 and 4; for growth of NaD1-resistant strains relative to wild-type: result in words. The experiment is classed as cell-based, Saccharomyces cerevisiae. On the procedure: YPD agar medium (25 mL) was amended to a final concentration of hydrogen peroxide (0.625 mM, 1.25 mM, 2.5 mM, 5 mM), CFW (1 μg/mL, 2.5 μg/mL, 5 μg/mL, 10 μg/mL), NaCl (100 mM, 200 mM, 300 mM), or SDS (12.5 μg/mL, 25 μg/mL, 50 μg/mL, 100 μg/mL) just before each plate was poured. Yeast cultures were grown overnight in 5 mL of YPD before dilution to an OD 600 nm of 0.1. A fivefold dilution series of each culture was spotted onto the plate (4 μL per spot) and incubated overnight at 30°C before being photographed.

Values after ≈ are worked out from the molar mass of the structure shown. Where two headings read alike, the source gives them in different places.

In general, MIC refers to the least concentration at which growth counts as inhibited.

With `CC[C@H](C)C[C@H](C)CCCCCCCCC(=O)N[C@H]1C[C@@H](O)[C@@H](NCCN)NC(=O)[C@@H]2[C@@H](O)CCN2C(=O)[C@H]([C@H](O)CCN)NC(=O)[C@H]([C@H](O)[C@@H](O)c2ccc(O)cc2)NC(=O)[C@@H]2C[C@@H](O)CN2C(=O)[C@H]([C@@H](C)O)NC1=O` [caspofungin], the MIC in experiment [1] (Table 1, Wild-type, ½ PDB, 24 h at 30°C, OD600, read-out: Caspofungin MIC) is 0.02 µM (≈ 0.0219 µg/mL); in [1] (initial MIC at the start of sub-culturing, read-out: initial MIC) it was 0.01 µM (≈ 0.0109 µg/mL); in [2], 0.025 µM (≈ 0.0273 µg/mL); in [3], 0.025 µM (≈ 0.0273 µg/mL); in experiment [4] it was 0.025 µM (≈ 0.0273 µg/mL); in experiment [5], 0.5 µM (≈ 0.547 µg/mL). Moreover, the MIC in [6] stood at 0.5 µM (≈ 0.547 µg/mL); in experiment [7], 0.5 µM (≈ 0.547 µg/mL); in [9] (Saccharomyces cerevisiae, read-out: MIC against caspofungin-resistant isolates), 0.5 µM (≈ 0.547 µg/mL); in experiment [10], 0.02 µM (≈ 0.0219 µg/mL). For the same molecule, in [8], the “sensitivity of NaD1-resistant strains compared with wild type” value is on record as “as sensitive to caspofungin as the wild-type strain”. For the same molecule, the “fold more resistant than no treatment control / wild type (MIC ratio)” value in [9] (caspofungin-resistant isolates versus no treatment control / wild type) is listed as 25 fold. The “rounds of sub-culture to achieve growth at concentrations 32-fold higher than the initial MIC” value in the experiment with S. cerevisiae BY4741 came out at 15 rounds.
Regarding `O=S(=O)(O)c1cc(Nc2nc(Nc3ccccc3)nc(N(CCO)CCO)n2)ccc1/C=C/c1ccc(Nc2nc(Nc3ccccc3)nc(N(CCO)CCO)n2)cc1S(=O)(=O)O` [CFW, calcofluor white], in experiment [11], the “concentration that inhibited NaD1-resistant strains but not the wild type” value turned out to be 10 µg/mL and the “concentration at which sensitivity of the NaD1-resistant strains was observed” value turned out to be 1 µg/mL.
On to `OO` [hydrogen peroxide], for which the “growth of NaD1-resistant strains relative to wild-type” value in experiment [11] (range of hydrogen peroxide concentrations in YPD agar) is listed as “grew the same as the wild-type strain”.
With `CCCCCCCCCCCCOS(=O)(=O)[O-].[Na+]` [SDS], in experiment [11], the “concentration that inhibited NaD1-resistant strains but not the wild type” value was determined as 100 µg/mL and the “concentration at which sensitivity of the NaD1-resistant strains was observed” value stood at 12.5 µg/mL.
On to `[Cl-].[Na+]` [NaCl], for which the “growth of NaD1-resistant strains relative to wild-type” value in experiment [11] (200 mM NaCl in YPD agar) is listed as “grew better than wild-type”.
